Assay results as given in article PMC5333395, “Assessing histone demethylase inhibitors in cells: lessons learned” (Epigenetics & Chromatin, 2017).

Columns and labels:
[1] = target: T1, KDM2A (Homo sapiens, UniProt Q9Y2K7); parameters: method as in PMID 26741168; settings: RapidFire under low iron condition (0.2 mM); previously reported; read-out: KDM2A IC50, in vitro, RapidFire; cited from earlier work
T1 sequence (Q9Y2K7 1-1162): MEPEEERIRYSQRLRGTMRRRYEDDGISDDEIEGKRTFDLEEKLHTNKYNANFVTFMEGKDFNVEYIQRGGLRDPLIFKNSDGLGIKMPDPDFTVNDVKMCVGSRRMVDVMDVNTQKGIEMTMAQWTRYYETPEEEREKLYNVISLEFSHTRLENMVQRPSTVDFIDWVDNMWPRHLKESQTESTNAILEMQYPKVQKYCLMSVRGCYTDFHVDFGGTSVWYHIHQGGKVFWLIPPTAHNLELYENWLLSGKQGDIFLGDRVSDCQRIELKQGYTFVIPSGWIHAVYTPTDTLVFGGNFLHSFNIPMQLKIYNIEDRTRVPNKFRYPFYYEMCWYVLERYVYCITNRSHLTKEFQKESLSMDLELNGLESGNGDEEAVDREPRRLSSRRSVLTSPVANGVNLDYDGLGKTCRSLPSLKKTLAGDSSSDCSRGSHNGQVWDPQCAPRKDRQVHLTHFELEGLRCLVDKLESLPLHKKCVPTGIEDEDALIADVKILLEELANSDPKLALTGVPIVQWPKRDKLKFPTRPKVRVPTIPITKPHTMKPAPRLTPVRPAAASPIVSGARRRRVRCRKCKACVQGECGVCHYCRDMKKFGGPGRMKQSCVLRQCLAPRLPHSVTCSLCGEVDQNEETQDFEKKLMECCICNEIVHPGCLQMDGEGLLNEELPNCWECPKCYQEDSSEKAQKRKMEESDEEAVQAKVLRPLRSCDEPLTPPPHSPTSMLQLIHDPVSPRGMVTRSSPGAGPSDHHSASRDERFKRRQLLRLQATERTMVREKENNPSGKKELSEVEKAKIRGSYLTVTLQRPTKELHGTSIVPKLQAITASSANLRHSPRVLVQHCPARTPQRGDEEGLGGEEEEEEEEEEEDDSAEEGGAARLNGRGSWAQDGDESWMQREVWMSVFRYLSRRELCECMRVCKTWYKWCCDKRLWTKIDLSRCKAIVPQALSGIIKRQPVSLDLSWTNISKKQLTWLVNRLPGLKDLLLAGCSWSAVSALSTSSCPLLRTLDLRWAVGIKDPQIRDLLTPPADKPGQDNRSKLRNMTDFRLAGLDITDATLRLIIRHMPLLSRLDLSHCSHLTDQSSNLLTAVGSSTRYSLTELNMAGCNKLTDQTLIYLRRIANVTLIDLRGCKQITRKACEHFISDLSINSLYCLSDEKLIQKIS

[2] = target: KDM5B (Homo sapiens, UniProt Q9UGL1); parameters: method as in PMID 26741168; settings: AlphaScreen; in vitro biochemical profiling previously reported; cited from earlier work
Sequence of KDM5B (Q9UGL1 whole entry): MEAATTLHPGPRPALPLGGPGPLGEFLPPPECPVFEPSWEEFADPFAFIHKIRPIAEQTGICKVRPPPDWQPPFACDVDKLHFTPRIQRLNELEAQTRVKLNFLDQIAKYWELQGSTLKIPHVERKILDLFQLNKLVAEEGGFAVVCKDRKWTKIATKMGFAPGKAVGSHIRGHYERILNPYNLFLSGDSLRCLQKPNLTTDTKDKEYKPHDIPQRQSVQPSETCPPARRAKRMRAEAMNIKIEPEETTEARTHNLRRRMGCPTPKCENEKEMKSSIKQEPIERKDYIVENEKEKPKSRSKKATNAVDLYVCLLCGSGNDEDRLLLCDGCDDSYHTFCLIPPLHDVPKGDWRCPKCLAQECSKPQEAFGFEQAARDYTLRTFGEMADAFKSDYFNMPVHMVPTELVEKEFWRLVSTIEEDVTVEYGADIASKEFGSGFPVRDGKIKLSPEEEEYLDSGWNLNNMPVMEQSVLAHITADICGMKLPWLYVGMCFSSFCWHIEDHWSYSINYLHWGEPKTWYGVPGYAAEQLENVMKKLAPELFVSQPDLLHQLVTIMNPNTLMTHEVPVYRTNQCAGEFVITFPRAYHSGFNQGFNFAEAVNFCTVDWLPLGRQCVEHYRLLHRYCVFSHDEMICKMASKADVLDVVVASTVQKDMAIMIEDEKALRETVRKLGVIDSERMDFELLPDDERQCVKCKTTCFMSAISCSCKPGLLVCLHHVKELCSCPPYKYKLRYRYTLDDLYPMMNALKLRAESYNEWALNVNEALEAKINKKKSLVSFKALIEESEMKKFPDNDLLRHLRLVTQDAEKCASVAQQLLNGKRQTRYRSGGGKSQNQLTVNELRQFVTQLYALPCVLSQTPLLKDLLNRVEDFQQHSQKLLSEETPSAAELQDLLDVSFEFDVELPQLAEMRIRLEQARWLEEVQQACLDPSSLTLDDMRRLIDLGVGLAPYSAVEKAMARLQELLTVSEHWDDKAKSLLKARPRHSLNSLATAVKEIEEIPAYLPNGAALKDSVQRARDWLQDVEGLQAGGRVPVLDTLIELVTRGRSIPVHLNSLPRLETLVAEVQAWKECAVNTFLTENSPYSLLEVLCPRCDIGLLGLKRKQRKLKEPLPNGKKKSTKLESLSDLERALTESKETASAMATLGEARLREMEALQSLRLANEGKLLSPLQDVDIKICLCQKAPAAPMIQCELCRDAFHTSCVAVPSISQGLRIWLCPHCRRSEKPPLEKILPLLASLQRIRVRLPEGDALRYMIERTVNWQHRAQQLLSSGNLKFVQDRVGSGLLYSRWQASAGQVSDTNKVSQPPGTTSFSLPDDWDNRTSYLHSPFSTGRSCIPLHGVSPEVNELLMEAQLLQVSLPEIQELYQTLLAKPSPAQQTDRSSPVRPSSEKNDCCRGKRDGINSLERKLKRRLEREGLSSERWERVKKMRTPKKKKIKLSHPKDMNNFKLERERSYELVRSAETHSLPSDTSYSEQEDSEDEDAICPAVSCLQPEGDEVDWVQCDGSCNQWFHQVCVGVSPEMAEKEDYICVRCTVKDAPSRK

[3] = target: T2, KDM3A (Homo sapiens, UniProt Q9Y4C1); parameters: method as in PMID 26741168; settings: AlphaScreen; in vitro biochemical profiling previously reported; cited from earlier work
T2 sequence (Q9Y4C1 1-1321): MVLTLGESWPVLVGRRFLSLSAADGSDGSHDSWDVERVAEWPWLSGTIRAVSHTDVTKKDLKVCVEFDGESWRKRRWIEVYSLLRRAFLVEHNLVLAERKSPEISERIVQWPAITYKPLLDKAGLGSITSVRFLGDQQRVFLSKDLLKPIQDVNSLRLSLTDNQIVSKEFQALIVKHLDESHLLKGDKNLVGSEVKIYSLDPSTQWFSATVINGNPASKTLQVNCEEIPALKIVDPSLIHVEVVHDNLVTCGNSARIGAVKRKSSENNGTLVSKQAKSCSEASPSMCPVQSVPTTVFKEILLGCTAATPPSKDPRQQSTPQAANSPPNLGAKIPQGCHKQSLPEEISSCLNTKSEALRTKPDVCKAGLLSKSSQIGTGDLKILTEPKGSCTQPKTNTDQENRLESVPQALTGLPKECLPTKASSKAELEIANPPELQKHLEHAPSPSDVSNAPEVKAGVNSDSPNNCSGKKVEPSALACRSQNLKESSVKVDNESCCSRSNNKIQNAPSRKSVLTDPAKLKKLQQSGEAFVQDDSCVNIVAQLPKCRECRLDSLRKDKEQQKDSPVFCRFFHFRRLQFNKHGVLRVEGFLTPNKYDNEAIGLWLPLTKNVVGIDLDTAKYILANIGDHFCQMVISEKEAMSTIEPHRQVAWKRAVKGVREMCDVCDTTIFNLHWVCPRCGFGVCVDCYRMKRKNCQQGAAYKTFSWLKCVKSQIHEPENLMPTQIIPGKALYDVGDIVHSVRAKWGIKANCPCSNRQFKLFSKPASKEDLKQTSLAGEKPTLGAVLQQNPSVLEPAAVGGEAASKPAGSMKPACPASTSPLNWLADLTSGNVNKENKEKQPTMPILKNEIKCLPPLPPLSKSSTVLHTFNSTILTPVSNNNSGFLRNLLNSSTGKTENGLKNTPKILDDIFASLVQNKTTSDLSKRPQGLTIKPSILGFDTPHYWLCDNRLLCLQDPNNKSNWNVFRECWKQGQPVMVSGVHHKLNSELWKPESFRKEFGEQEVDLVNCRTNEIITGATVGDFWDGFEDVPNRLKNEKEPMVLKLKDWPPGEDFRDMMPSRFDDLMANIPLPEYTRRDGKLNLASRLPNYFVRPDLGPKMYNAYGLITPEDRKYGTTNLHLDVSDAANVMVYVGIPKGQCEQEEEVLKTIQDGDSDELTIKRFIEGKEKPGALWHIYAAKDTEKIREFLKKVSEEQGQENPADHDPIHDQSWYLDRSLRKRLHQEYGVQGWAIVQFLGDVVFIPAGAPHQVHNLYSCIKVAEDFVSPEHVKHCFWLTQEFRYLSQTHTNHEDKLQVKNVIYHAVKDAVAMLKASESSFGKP

[4] = target: KDM5D (Homo sapiens, UniProt Q9BY66); assay: AlphaScreen in vitro demethylase assay; type: biochemical; settings: IC50 ± SD (number of replicates)
Sequence of KDM5D (Q9BY66 whole entry): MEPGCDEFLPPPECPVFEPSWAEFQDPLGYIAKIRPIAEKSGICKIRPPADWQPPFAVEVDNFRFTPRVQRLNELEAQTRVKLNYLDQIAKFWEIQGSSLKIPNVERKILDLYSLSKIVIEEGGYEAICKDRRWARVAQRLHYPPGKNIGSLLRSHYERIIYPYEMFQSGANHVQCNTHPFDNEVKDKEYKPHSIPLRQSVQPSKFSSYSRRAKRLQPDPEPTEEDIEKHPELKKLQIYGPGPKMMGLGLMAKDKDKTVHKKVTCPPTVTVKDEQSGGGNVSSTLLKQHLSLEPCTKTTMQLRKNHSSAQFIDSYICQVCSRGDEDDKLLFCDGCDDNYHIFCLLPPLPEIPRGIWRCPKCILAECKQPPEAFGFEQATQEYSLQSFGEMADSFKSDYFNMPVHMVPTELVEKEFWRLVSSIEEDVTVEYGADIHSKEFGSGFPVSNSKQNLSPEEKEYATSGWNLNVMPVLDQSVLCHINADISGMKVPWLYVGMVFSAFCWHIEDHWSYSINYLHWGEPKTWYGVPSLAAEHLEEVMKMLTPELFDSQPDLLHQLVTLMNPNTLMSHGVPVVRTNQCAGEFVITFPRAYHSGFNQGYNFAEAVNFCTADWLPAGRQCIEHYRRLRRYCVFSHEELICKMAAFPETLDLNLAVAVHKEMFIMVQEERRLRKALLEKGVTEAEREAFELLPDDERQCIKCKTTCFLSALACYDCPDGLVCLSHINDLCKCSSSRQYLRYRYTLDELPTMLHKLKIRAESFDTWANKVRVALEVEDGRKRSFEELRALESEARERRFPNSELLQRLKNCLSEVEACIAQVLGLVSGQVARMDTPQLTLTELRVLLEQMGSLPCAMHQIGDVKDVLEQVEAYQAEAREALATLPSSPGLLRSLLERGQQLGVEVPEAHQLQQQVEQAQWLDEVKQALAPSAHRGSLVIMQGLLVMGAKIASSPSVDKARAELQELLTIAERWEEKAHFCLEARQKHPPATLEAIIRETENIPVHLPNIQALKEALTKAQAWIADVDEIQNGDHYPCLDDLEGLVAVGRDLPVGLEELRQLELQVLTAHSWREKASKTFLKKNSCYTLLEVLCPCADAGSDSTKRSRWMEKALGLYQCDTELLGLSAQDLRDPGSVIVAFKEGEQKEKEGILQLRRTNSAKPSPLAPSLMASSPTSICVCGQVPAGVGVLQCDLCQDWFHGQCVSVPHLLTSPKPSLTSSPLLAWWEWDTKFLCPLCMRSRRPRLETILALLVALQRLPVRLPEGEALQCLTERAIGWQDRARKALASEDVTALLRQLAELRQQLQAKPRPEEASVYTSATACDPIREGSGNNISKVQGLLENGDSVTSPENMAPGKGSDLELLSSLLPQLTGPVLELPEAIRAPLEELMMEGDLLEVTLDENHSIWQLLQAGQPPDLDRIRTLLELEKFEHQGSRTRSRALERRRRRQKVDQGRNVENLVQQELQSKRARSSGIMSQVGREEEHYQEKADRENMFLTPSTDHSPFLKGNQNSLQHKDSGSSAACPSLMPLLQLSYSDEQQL
Procedure: IC50 values were determined as previously described. The following amendments were made to the protocol for carrying out 2-OG competition assays.

SMILES	IC50 [1] [nM]	IC50 [2] [nM]	IC50 [3] [nM]	IC50 [4] [nM]
Clc1ccc(N/N=C(\c2ccccc2)c2ccccn2)nc1 [JIB-04 E]	1200 ± 10	561	650 ± 50	–
CCN(CCN(C)C)C(=O)CNCc1cc(C(=O)O)ccn1 [KDOAM-20]	–	–	–	19 ± 4
